Results taken from patent US20240269106A1, “SMALL MOLECULE MODULATOR TARGETING A RARE HISTONE MODIFICATION REGULATING ADIPOGENESIS AND PHARMACEUTICAL FORMULATION THEREOF” (COUNCIL OF SCIENTIFIC AND INDUSTRIAL RESEARCH AN INDIAN …, priority 2021, published 2024).

What was measured:
[1] = test system: histone acetylation and butyrylation in 3T3L1 cells; assay: Immunoblotting of histone modification status in 3T3L1; assay type: cell-based; details: 3T3L1 induced to undergo adipogenesis
Description: Histones were acid extracted from both undifferentiated and differentiated 3T3L1 for comparison of acetylation and butyrylation levels. For the acid extraction, 3T3L1 cells were washed with ice-cold PBS (supplemented with 5 mm NaBu) and then resuspended in Triton extraction buffer (PBS containing 0.5% Triton X-100 (v/v) and 2 mM PMSF). The cells were allowed to lyse on ice for 10 minutes, spun down, washed with PBS and the process was repeated another time. Then the proteins were acid extracted with 0.2 N HCl for two hours on ice. The debris was spun down and then histones were precipitated by incubating the supernatant with 33% Trichloroacetic acid at 4° C. for 30 minutes. The histones were then pelleted down and then given two washes with acetone. The pellet was allowed to air-dry for 10 minutes and then resuspended with 50 mm Tris-Cl, pH 7.4.
The histones were then run in 15% SDS-PAGE, transferred onto PVDF membrane, blocked with 5% skimmed milk solution to prevent non-specific antibody binding, and finally probed with antibodies against acetylation and butyrylation marks.
Acid extraction of histones was performed from 3T3L1 cells that had been induced to undergo adipogenesis in the absence of any inhibitor (No Inhibitor), in presence of DMSO (solvent control) and in presence of compound of Formula I. The extraction protocol was the same as that described in Example 7.
Histone acetylation levels in 3T3L1 cells that were treated with compound of Formula I were compared with that in DMSO treated and untreated conditions by immunoblotting with antibodies against acetylated histones H3K18, H3K9 and H4K12 (FIG. 7). Histones H3 and H4 were used as loading controls (panel i). Under similar conditions histone butyrylation levels were compared by immunoblotting using antibodies against butyrylated histone H3K23, H4K5 and pan-butyryl lysine (panel ii).

[2] = test system: C57BL/6J mice maintained on high fat diet; assay: Standardization of dosage and administration mode, intraperitoneal, high fat diet mice; assay type: in vivo
Description: Male C57BL/6J mice (8 weeks old) bred in house were obtained and acclimatized for 1 week prior to experiments. Mice were maintained on a 12-hour light/dark cycle at 22+/−3° C. and a relative humidity of 55% and given ad libitum access to food and water. The age-matched C57BL/6J mice were maintained on a standard laboratory chow diet or high fat diet (60 kcal % fat) and water. Two groups were intraperitoneally injected with compound x at two different doses (20 mg/Kg bw and 50 mg/kg bw) twice every week. A third group was injected with equivalent volume of DMSO (for 50 mg/kg bw) as vehicle control. Body weight and food intake was measured twice every week.

[3] = test system: histone butyrylation and acetylation in liver and adipose tissue; assay: Histone modifications in liver and adipose tissue of high fat diet mice; assay type: in vivo
Description: Collected liver tissue samples were stored in 4% paraformaldehyde for 24 hours after which they were cryoprotected in 30% sucrose solution for two weeks. Cryosections were performed at 7 μm sections using Cryostat Leica CM1850 UV. For staining, the tissue sections were washed with PBS followed by antigen retrieval with 0.01 M citrate buffer (pH 6). The tissues were then permeabilised with 0.3% Triton X-100/PBS (PBST) and blocked with 2% serum followed by incubation with primary antibodies overnight at 4° C. The next day, secondary antibody incubation was carried out for one hour at room temperature followed by staining of the nuclei with Hoechst 33342 and mounting with 70% glycerol. Images were acquired by confocal microscopy. For quantitation, intensity of each modification specific staining was normalized with respect to the Hoechst staining intensity.
It was observed that H4K5 butyrylation in liver increased upon high fat diet consumption but was inhibited in presence of compound of Formula I (FIG. 10A). […] Acid extraction of histones was performed from the epididymal fat pads of mice using the same protocol as mentioned in example 7. It was observed that H4K5 butyrylation was reduced in the adipocytes of high fat diet fed mice treated with compound of Formula I compared to mice fed with high fat diet only (FIG. 10B).

[4] = test system: genetically obese db/db mice; assay: Body weight gain of genetically obese db/db mice; assay type: in vivo; details: 50 mg/kg oral gavage
Description: Male db+/− and genetically obese db/db mice (8 weeks old) were obtained and acclimatized for 1 week prior to experiments. Mice were maintained on a 12-hour light/dark cycle at 22+/−3° C. and a relative humidity of 55% and given ad libitum access to food and water.
The age-matched db+/− and db/db mice were maintained on a standard laboratory pelleted diet and water. db/db mice were oral gavaged (50 mg/kg) with LTK14A in 0.5% carboxymethyl cellulose, equal volume of the vehicle was orally gavaged to control db/db mice for a total period of 30 days. db+/− animals were kept as untreated normal control group. The body weights and feed intake was recorded every week throughout the experimental period. The lean and fat mass of the mice were determined using Echo MRI in live mice on day 15th and day 30th.
Trend of weight gaining after 30 days of genetically obese leptin receptor homozygous mutant mice with compound of Formula I was plotted against that of mutant mice treated with vehicle control and also heterozygous mutant mice (FIG. 10)(panel i). Average weight gain, average fat mass and average lean mass of the mice from the three groups are represented in bar p graphs (panel ii, iii and iv respectively); n=4 in each group:one-way ANOVA with Dunnett's multiple comparison; * P<0.05, ** P<0.01, *** P<0.001, ns: not significant.

[5] = test system: genetically obese db/db mice; assay: Liver and adipose tissue of genetically obese db/db mice; assay type: in vivo
Text: After the treatment of the mice with compound of Formula I for one month, the mice were sacrificed and their liver and epididymal fat pads were harvested. The organs were individually weighed and then processed for morphology study by hematoxylin and eosin staining.
Average weights of liver (i) and adipose tissue (ii) of the mice of the three different groups are represented by bar graphs (FIG. 11); n=4 in each group:one-way ANOVA with Dunnett's multiple comparison; * P<0.05, ** P<0.01, *** P<0.001, ns: not significant. Representative images of morphology of adipose tissue (iii) and liver (iv) from the mice of the three groups, as studied by hematoxylin and eosin staining.

[6] = test system: histone butyrylation and acetylation in liver and adipose tissue; assay: Histone modifications in liver and adipose tissue of db/db mice; assay type: in vivo
Description: Liver sample sectioning and immunohistochemical staining was performed using the same protocol as mentioned in example 15. It was observed that H4K5 butyrylation in liver increased in the db/db obese mice liver but was inhibited in presence of compound of Formula I (FIG. 13A). […] Acid extraction of histones was performed from the epididymal fat pads of mice using the same protocol as mentioned in example 7. It was observed that H4K5 butyrylation was reduced in the adipocytes of db/db mice treated with compound of Formula I compared to db/db mice treated with vehicle control (FIG. 13B).

[7] = epididymal fat pads, immunoblot

COc1ccc(C(=O)C2=C3OC(C)(C)[C@@H](CC=C(C)C)C[C@@]34C[C@@H](CC=C(C)C)C(C)(C)[C@@](CC=C(C)C)(C2=O)C4=O)cc1OC [Compound X]
H3K23 Bu mark [1]: showed inhibition | H4K5 Bu mark [1]: showed inhibition | histone acetylation (H3K18, H3K9, H4K12) [1]: not found to be affected | weight gain ([2]; 20 mg/kg bw intraperitoneal twice every week): not sufficient for arresting weight gain | body weight ([2]; 50 mg/kg bw intraperitoneal twice every week, DMSO vehicle gave almost similar arrest): did have an attenuating effect | H4K5 butyrylation in adipocytes [3, 7]: reduced | H4K5 butyrylation in liver ([3]; immunohistochemistry): inhibited | H4K12 and H3K14 acetylation in liver ([3]; immunohistochemistry): not affected | effect on fat mass compared to lean mass (Echo MRI) [4]: greater effect on fat mass | body weight ([4]; 30 days): reduction in body weight | liver and epididymal fat pad weights ([5]; between db/db vehicle and db+/-): intermediate weights | symptoms of liver steatosis and adipose tissue hypertrophy ([5]; one month treatment): significantly reduced | H4K5 butyrylation in adipocytes [6, 7]: reduced | H4K5 butyrylation in liver ([6]; immunohistochemistry): inhibited | H4K12 and H3K14 acetylation in liver ([6]; immunohistochemistry): not affected
